Assay results: PubChem BioAssay (NCI)
Values joined by “and” are separate entries in the source; they are usually repeats but may differ in a detail not shown here. Identical values can stand only once.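 Compound exposure: 48 hours, 5 concentrations, 96-well plates. Abbreviation: GI50, concentration required for 50% inhibition of growth. TGI is the concentration that stops growth completely.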

How the values were obtained:
Assay in all cases: growth of human tumour cells (NCI), 48 h
T-47D breast = test system: T-47D breast
NCI-H522 lung = test system: NCI-H522 lung
RXF 393 renal = test system: RXF 393 renal
COLO 205 colon = test system: COLO 205 colon
NCI-H23 lung = test system: NCI-H23 lung
RPMI-8226 leukemia = test system: RPMI-8226 leukemia
MDA-MB-435 = test system: MDA-MB-435
M14 melanoma = test system: M14 melanoma
SF-268 CNS = test system: SF-268 CNS
HL-60(TB) leukemia = test system: HL-60(TB) leukemia
MALME-3M melanoma = test system: MALME-3M melanoma
MCF7 breast = test system: MCF7 breast
SNB-75 CNS = test system: SNB-75 CNS
SK-MEL-2 melanoma = test system: SK-MEL-2 melanoma
SF-539 CNS = test system: SF-539 CNS
HOP-92 NSCLC = test system: HOP-92 NSCLC
CCRF-CEM leukemia = test system: CCRF-CEM leukemia
UACC-62 melanoma = test system: UACC-62 melanoma
A549 NSCLC = test system: A549 NSCLC
SK-MEL-28 melanoma = test system: SK-MEL-28 melanoma
TK-10 renal = test system: TK-10 renal
SN12C renal = test system: SN12C renal
SW-620 colon = test system: SW-620 colon
ACHN renal = test system: ACHN renal
SNB-19 CNS = test system: SNB-19 CNS
HCC-2998 colon = test system: HCC-2998 colon
OVCAR-4 ovarian = test system: OVCAR-4 ovarian
BT-549 breast = test system: BT-549 breast
NCI-H226 lung = test system: NCI-H226 lung

O=C(Nc1ccc(Cl)c(Cl)c1)Nc1ccc(Cl)c(Cl)c1
GI50 (T-47D breast): 2.01 µM and 4.22 µM | TGI (T-47D breast): 8.12 µM and 49 µM | GI50 (NCI-H522 lung): 1.68 µM and 1.25 µM | TGI (NCI-H522 lung): 5.67 µM and 3.03 µM | GI50 (RXF 393 renal): 2.81 µM and 2.57 µM | TGI (RXF 393 renal): 11.6 µM and 6.57 µM | GI50 (COLO 205 colon): 1.77 µM and 2.07 µM | TGI (COLO 205 colon): 3.3 µM and 3.69 µM | GI50 (NCI-H23 lung): 2.63 µM and 2.4 µM | TGI (NCI-H23 lung): 10.2 µM and 11.4 µM | GI50 (RPMI-8226 leukemia): 1.79 µM and 0.997 µM | TGI (RPMI-8226 leukemia): 6.99 µM and 5.33 µM | GI50 (MDA-MB-435): 3.06 µM and 2.8 µM | TGI (MDA-MB-435): 11.4 µM and 8.8 µM | GI50 (M14 melanoma): 3.1 µM | TGI (M14 melanoma): 9.59 µM | GI50 (SF-268 CNS): 3.92 µM and 3.88 µM | TGI (SF-268 CNS): 15.1 µM and 14.5 µM | GI50 (HL-60(TB) leukemia): 2.58 µM and 2.16 µM | TGI (HL-60(TB) leukemia): 7.24 µM and 6.68 µM | GI50 (MALME-3M melanoma): 2.22 µM and 2.44 µM | TGI (MALME-3M melanoma): 5.95 µM and 6.58 µM | GI50 (MCF7 breast): 2.61 µM and 2.78 µM | TGI (MCF7 breast): 12 µM and 11.6 µM | GI50 (SNB-75 CNS): 2.15 µM and 2.85 µM | TGI (SNB-75 CNS): 7.81 µM and 18.8 µM | GI50 (SK-MEL-2 melanoma): 2.15 µM | TGI (SK-MEL-2 melanoma): 5.49 µM and 4.09 µM | GI50 (SF-539 CNS): 2.63 µM and 3.64 µM | TGI (SF-539 CNS): 8.15 µM and 14.7 µM | GI50 (HOP-92 NSCLC): 2.19 µM and 1.23 µM | TGI (HOP-92 NSCLC): 5.81 µM and 4.47 µM | GI50 (CCRF-CEM leukemia): 3.36 µM and 1.97 µM | TGI (CCRF-CEM leukemia): 14.1 µM and 6.47 µM | GI50 (UACC-62 melanoma): 2.88 µM and 2.38 µM | TGI (UACC-62 melanoma): 13.4 µM and 10.4 µM | GI50 (A549 NSCLC): 2.98 µM and 2.29 µM | TGI (A549 NSCLC): 15.6 µM and 10.6 µM | GI50 (SK-MEL-28 melanoma): 3.24 µM and 4.13 µM | TGI (SK-MEL-28 melanoma): 14.2 µM and > 100 µM | GI50 (TK-10 renal): 3.3 µM and 2.59 µM | TGI (TK-10 renal): 13.3 µM and 5.86 µM | GI50 (SN12C renal): 3.1 µM and 2.83 µM | TGI (SN12C renal): 11.8 µM and 10.7 µM | GI50 (SW-620 colon): 3.36 µM and 3.12 µM | TGI (SW-620 colon): 14.4 µM and 11.7 µM | GI50 (ACHN renal): 2.34 µM and 3.28 µM | TGI (ACHN renal): 6.49 µM and 10.5 µM | GI50 (SNB-19 CNS): 3.03 µM and 3.7 µM | TGI (SNB-19 CNS): 15.4 µM and 23 µM | GI50 (HCC-2998 colon): 3.71 µM and 3.01 µM | TGI (HCC-2998 colon): 13.4 µM and 11.5 µM | GI50 (OVCAR-4 ovarian): 2.98 µM and 3.57 µM | TGI (OVCAR-4 ovarian): 14.6 µM and 47.7 µM | GI50 (BT-549 breast): 1.72 µM and 4.01 µM | TGI (BT-549 breast): 5.96 µM and 31.6 µM | GI50 (NCI-H226 lung): 3.05 µM and 3.22 µM
